# Assay results reported in the supplement of paper PMC6045584.
# ± gives the standard deviation of the averaged measurements.
# Assays:
# [1] = compound: CC(=O)NCC(=O)N1[C@@H]2CC[C@H]1c1ccc(Nc3ncc(C(F)(F)F)c(NC4CCC4)n3)cc12; assay: surviving fraction relative to DMSO-only wells; higher = less growth inhibition; conditions: exposure time: 5 days
# Procedure, shortened: (§1)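 A line counted only if its three screens reached replicate Pearson r >0.7 and median Z' >0.3. Tumour cells in log phase were seeded at 250–500 per well in 384-well plates and, after 24 hours, kept in continuous contact with inhibitors at 0.5, 1, 5, 10, 50, 100, 500 and 1000 nM for five days. Surviving fraction was taken from CellTiter-Glo luminescence relative to the median of DMSO-only wells.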
# PACLITAXEL [2] = compound: T1, CC(=O)O[C@H]1C(=O)[C@@]2(C)[C@H]([C@H](OC(=O)c3ccccc3)[C@]3(O)C[C@H](OC(=O)[C@H](O)[C@@H](NC(=O)c4ccccc4)c4ccccc4)C(C)=C1C3(C)C)[C@]1(OC(C)=O)CO[C@@H]1C[C@@H]2O [PACLITAXEL]; assay: as above; conditions: exposure time: 5 days
# Procedure, shortened: as §1
# [3] = compound: CC(=O)c1c(C)c2cnc(Nc3ccc(N4CCNCC4)cn3)nc2n(C2CCCC2)c1=O; assay: as above; conditions: exposure time: 5 days
# Procedure, shortened: as §1
# CAMPTOTHECIN [4] = compound: T2, CC[C@@]1(O)C(=O)OCc2c1cc1n(c2=O)Cc2cc3ccccc3nc2-1 [CAMPTOTHECIN]; assay: as above; conditions: exposure time: 5 days
# Procedure, shortened: as §1
# YM155 [5] = compound: T3, COCC[n+]1c2c(n(Cc3cnccn3)c1C)C(=O)c1ccccc1C2=O [YM155]; assay: as above; conditions: exposure time: 5 days
# Procedure, shortened: as §1
# GEFITINIB [6] = compound: T4, COc1cc2ncnc(Nc3ccc(F)c(Cl)c3)c2cc1OCCCN1CCOCC1 [GEFITINIB]; assay: as above; conditions: exposure time: 5 days
# Procedure, shortened: as §1
# OSI-906 [7] = compound: T5, C[C@]1(O)C[C@@H](c2nc(-c3ccc4ccc(-c5ccccc5)nc4c3)c3c(N)nccn32)C1 [OSI-906]; assay: as above; conditions: exposure time: 5 days
# Procedure, shortened: as §1
# CELECOXIB [8] = compound: T6, Cc1ccc(-c2cc(C(F)(F)F)nn2-c2ccc(S(N)(=O)=O)cc2)cc1 [CELECOXIB]; assay: as above; conditions: exposure time: 5 days
# Procedure, shortened: as §1
# CARBOPLATIN [9] = compound: T7, O=C(O)C1(C(=O)O)CCC1.[NH2-].[NH2-].[Pt+2] [CARBOPLATIN]; assay: as above; conditions: exposure time: 5 days
# Procedure, shortened: as §1
# [10] = compound: CC(=O)NCC(=O)N1[C@@H]2CC[C@H]1c1ccc(Nc3ncc(C(F)(F)F)c(NC4CCC4)n3)cc12; assay: area under dose-response curve of surviving fraction (unscaled, Aref=0) (surviving fraction x log10(nM)); higher = more resistant; conditions: exposure time: 5 days; dose range 0.5-1000 nM
# Procedure, shortened: (§2)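 Tumour cell lines in 384-well plates were exposed for five days to eight inhibitor concentrations from 0.5 to 1000 nM. Viability was read by CellTiter-Glo luminescence, normalised to DMSO-only wells, in three screens per line. Dose-response survival curves were fitted to surviving fractions by 3-parameter logistic regression in the drc R package. Area under the curve is the unscaled activity area (Aref = 0) over log10 dose.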
# PACLITAXEL [11] = compound: T1, PACLITAXEL; assay: as above; conditions: exposure time: 5 days; dose range 0.5-1000 nM
# Procedure, shortened: as §2
# [12] = compound: CC(=O)c1c(C)c2cnc(Nc3ccc(N4CCNCC4)cn3)nc2n(C2CCCC2)c1=O; assay: as above; conditions: exposure time: 5 days; dose range 0.5-1000 nM
# Procedure, shortened: as §2
# CAMPTOTHECIN [13] = compound: T2, CAMPTOTHECIN; assay: as above; conditions: exposure time: 5 days; dose range 0.5-1000 nM
# Procedure, shortened: as §2
# YM155 [14] = compound: T3, YM155; assay: as above; conditions: exposure time: 5 days; dose range 0.5-1000 nM
# Procedure, shortened: as §2
# GEFITINIB [15] = compound: T4, GEFITINIB; assay: as above; conditions: exposure time: 5 days; dose range 0.5-1000 nM
# Procedure, shortened: as §2
# OSI-906 [16] = compound: T5, OSI-906; assay: as above; conditions: exposure time: 5 days; dose range 0.5-1000 nM
# Procedure, shortened: as §2
# CELECOXIB [17] = compound: T6, CELECOXIB; assay: as above; conditions: exposure time: 5 days; dose range 0.5-1000 nM
# Procedure, shortened: as §2
# CARBOPLATIN [18] = compound: T7, CARBOPLATIN; assay: as above; conditions: exposure time: 5 days; dose range 0.5-1000 nM
# Procedure, shortened: as §2
test system,measurement,setting,value
HOSMNG BONE,surviving fraction,[1]; 0.5 nM,0.997 ± 0.028
same,surviving fraction,[1]; 1 nM,1.01 ± 0.06
same,surviving fraction,[1]; 5 nM,0.962 ± 0.033
same,surviving fraction,[1]; 10 nM,0.989 ± 0.016
same,surviving fraction,[1]; 50 nM,0.886 ± 0.088
same,surviving fraction,[1]; 100 nM,0.874 ± 0.041
same,surviving fraction,[1]; 500 nM,0.449 ± 0.019
same,surviving fraction,[1]; 1000 nM,0.392 ± 0.0087
same,surviving fraction,PACLITAXEL [2]; 0.5 nM,1.04 ± 0.049
same,surviving fraction,PACLITAXEL [2]; 1 nM,1.05 ± 0.11
same,surviving fraction,PACLITAXEL [2]; 5 nM,0.921 ± 0.088
same,surviving fraction,PACLITAXEL [2]; 10 nM,0.924 ± 0.043
same,surviving fraction,PACLITAXEL [2]; 50 nM,0.29 ± 0.031
same,surviving fraction,PACLITAXEL [2]; 100 nM,0.12 ± 0.0079
same,surviving fraction,PACLITAXEL [2]; 500 nM,0.0573 ± 0.0021
same,surviving fraction,PACLITAXEL [2]; 1000 nM,0.063 ± 0.0044
same,surviving fraction,[3]; 0.5 nM,1.03 ± 0.021
same,surviving fraction,[3]; 1 nM,0.978 ± 0.16
same,surviving fraction,[3]; 5 nM,1.02 ± 0.042
same,surviving fraction,[3]; 10 nM,1 ± 0.048
same,surviving fraction,[3]; 50 nM,1.07 ± 0.072
same,surviving fraction,[3]; 100 nM,1.05 ± 0.18
same,surviving fraction,[3]; 500 nM,1.07 ± 0.094
same,surviving fraction,[3]; 1000 nM,1.06 ± 0.16
same,surviving fraction,CAMPTOTHECIN [4]; 0.5 nM,0.889 ± 0.11
same,surviving fraction,CAMPTOTHECIN [4]; 1 nM,0.973 ± 0.035
same,surviving fraction,CAMPTOTHECIN [4]; 5 nM,0.863 ± 0.1
same,surviving fraction,CAMPTOTHECIN [4]; 10 nM,0.875 ± 0.042
same,surviving fraction,CAMPTOTHECIN [4]; 50 nM,0.322 ± 0.035
same,surviving fraction,CAMPTOTHECIN [4]; 100 nM,0.214 ± 0.0082
same,surviving fraction,CAMPTOTHECIN [4]; 500 nM,0.0427 ± 0.0038
same,surviving fraction,CAMPTOTHECIN [4]; 1000 nM,0.0287 ± 0.0015
same,surviving fraction,YM155 [5]; 0.5 nM,0.934 ± 0.09
same,surviving fraction,YM155 [5]; 1 nM,0.929 ± 0.1
same,surviving fraction,YM155 [5]; 5 nM,0.889 ± 0.096
same,surviving fraction,YM155 [5]; 10 nM,0.87 ± 0.11
same,surviving fraction,YM155 [5]; 50 nM,0.198 ± 0.0064
same,surviving fraction,YM155 [5]; 100 nM,0.132 ± 0.017
same,surviving fraction,YM155 [5]; 500 nM,0.0837 ± 0.04
same,surviving fraction,YM155 [5]; 1000 nM,0.061 ± 0.0036
same,surviving fraction,GEFITINIB [6]; 0.5 nM,1.01 ± 0.035
same,surviving fraction,GEFITINIB [6]; 1 nM,0.993 ± 0.0089
same,surviving fraction,GEFITINIB [6]; 5 nM,0.971 ± 0.092
same,surviving fraction,GEFITINIB [6]; 10 nM,1.03 ± 0.073
same,surviving fraction,GEFITINIB [6]; 50 nM,1.05 ± 0.085
same,surviving fraction,GEFITINIB [6]; 100 nM,1.14 ± 0.026
same,surviving fraction,GEFITINIB [6]; 500 nM,1.09 ± 0.091
same,surviving fraction,GEFITINIB [6]; 1000 nM,1.07 ± 0.021
same,surviving fraction,OSI-906 [7]; 0.5 nM,0.94 ± 0.099
same,surviving fraction,OSI-906 [7]; 1 nM,0.941 ± 0.076
same,surviving fraction,OSI-906 [7]; 5 nM,0.948 ± 0.06
same,surviving fraction,OSI-906 [7]; 10 nM,0.98 ± 0.062
same,surviving fraction,OSI-906 [7]; 50 nM,0.854 ± 0.086
same,surviving fraction,OSI-906 [7]; 100 nM,0.993 ± 0.1
same,surviving fraction,OSI-906 [7]; 500 nM,0.957 ± 0.056
same,surviving fraction,OSI-906 [7]; 1000 nM,1 ± 0.032
same,surviving fraction,CELECOXIB [8]; 0.5 nM,0.941 ± 0.06
same,surviving fraction,CELECOXIB [8]; 1 nM,0.968 ± 0.093
same,surviving fraction,CELECOXIB [8]; 5 nM,0.923 ± 0.047
same,surviving fraction,CELECOXIB [8]; 10 nM,0.879 ± 0.11
same,surviving fraction,CELECOXIB [8]; 50 nM,1.01 ± 0.059
same,surviving fraction,CELECOXIB [8]; 100 nM,1.08 ± 0.098
same,surviving fraction,CELECOXIB [8]; 500 nM,1.05 ± 0.13
same,surviving fraction,CELECOXIB [8]; 1000 nM,1.02 ± 0.072
same,surviving fraction,CARBOPLATIN [9]; 0.5 nM,1.06 ± 0.025
same,surviving fraction,CARBOPLATIN [9]; 1 nM,1.02 ± 0.059
same,surviving fraction,CARBOPLATIN [9]; 5 nM,1.03 ± 0.075
same,surviving fraction,CARBOPLATIN [9]; 10 nM,1.05 ± 0.036
same,surviving fraction,CARBOPLATIN [9]; 50 nM,1.22 ± 0.069
same,surviving fraction,CARBOPLATIN [9]; 100 nM,1.23 ± 0.015
same,surviving fraction,CARBOPLATIN [9]; 500 nM,1.091 ± 0.0096
same,surviving fraction,CARBOPLATIN [9]; 1000 nM,1.19 ± 0.013
same,area under dose-response curve,[10],2.83
same,area under dose-response curve,PACLITAXEL [11],1.85
same,area under dose-response curve,[12],3.41
same,area under dose-response curve,CAMPTOTHECIN [13],1.82
same,area under dose-response curve,YM155 [14],1.76
same,area under dose-response curve,GEFITINIB [15],3.45
same,area under dose-response curve,OSI-906 [16],3.13
same,area under dose-response curve,CELECOXIB [17],3.18
same,area under dose-response curve,CARBOPLATIN [18],3.65
